Test results published in ChEMBL document CHEMBL3045882, “Synthesis and biological activity evaluation of novel β-substituted nitromethylene neonicotinoid analogues” (2012).

Experiments:
[1] = system: Aphis craccivora; test: Insecticidal activity against Aphis craccivora (cowpea aphid) infected soybean tender shoots assessed as mortality at 500 mg/L after 24 hr; type: functional
[2] = system: Aphis craccivora; test: Insecticidal activity against Aphis craccivora (cowpea aphid) infected soybean tender shoots after 24 hr; type: functional

Structure (SMILES) | mortality at 500 µg/mL [1] [%] | LC50 [2] [µM]
N#CS/C(=C1\NCCN1Cc1ccc(Cl)nc1)[N+](=O)[O-] | 100 | 15.7
N#CS/C(C#N)=C1\NCCN1Cc1ccc(Cl)nc1 | 34.6 | 
N#CS/C(=C1\NCCN1Cc1cnc(Cl)s1)[N+](=O)[O-] | 100 | 9.74
N#CS/C(C#N)=C1\NCCN1Cc1cnc(Cl)s1 | 0 | 
N#CS/C(=C1\NCCN1Cc1ccccc1)[N+](=O)[O-] | 24 | 
N#CS/C(=C1\NCCCN1Cc1ccc(Cl)nc1)[N+](=O)[O-] | 100 | 24.9
N#CS/C(=C1\NCCN1Cc1ccc(C(F)(F)F)nc1)[N+](=O)[O-] | 100 | 18.9
N#CS/C(=C1\Nc2ccccc2N1Cc1ccc(Cl)nc1)[N+](=O)[O-] | 87.8 | 
N=c1sc([N+](=O)[O-])c2n1CCN2Cc1ccc(Cl)nc1 | 100 | 26.8
N#Cc1sc(=N)n2c1N(Cc1ccc(Cl)nc1)CC2 | 32.4 | 
N=c1sc([N+](=O)[O-])c2n1CCN2Cc1cnc(Cl)s1 | 100 | 17.8
N=c1sc([N+](=O)[O-])c2n1CCN2Cc1ccccc1 | 16.2 | 
N=c1sc([N+](=O)[O-])c2n1CCCN2Cc1ccc(Cl)nc1 | 100 | 22
N=c1sc([N+](=O)[O-])c2n1CCN2Cc1ccc(C(F)(F)F)nc1 | 100 | 24.5
CCN(Cc1ccc(Cl)nc1)c1c([N+](=O)[O-])sc(=N)n1C | 57.6 | 
Cn1c(NCc2ccc(Cl)nc2)c([N+](=O)[O-])sc1=N | 100 | 118
CCn1c(NCc2ccc(Cl)nc2)c([N+](=O)[O-])sc1=N | 50.8 | 
